This note sets out measurements from ChEMBL document CHEMBL3774317, “Design and synthesis of novel tamoxifen analogues that avoid CYP2D6 metabolism” (Eur J Med Chem, 2016).

Series [1] in a line: Cytotoxicity against human LOXIMVI cells assessed as cell growth at 10^-7 M after 48 hrs by SRB assay. The class given is functional. Particulars: LOX IMVI, read-out: Activity. A general note: In SRB staining, fixed cells bind dye roughly in proportion to their protein.
A short description of series [2]: Cytotoxicity against human DU145 cells assessed as cell growth at 10^-4 M after 48 hrs by SRB assay. The class given is functional. Particulars: DU-145, 48 h, read-out: Activity.
Series [3] concerns SN12C. Description: Cytotoxicity against human SN12C cells assessed as cell growth at 10^-6 M after 48 hrs by SRB assay. The class given is functional. Particulars: read-out: Activity.
Series [4] is described as follows: Cytotoxicity against human SNB19 cells assessed as cell growth at 10^-5 M after 48 hrs by SRB assay. The class given is functional. Particulars: SNB-19, 48 h, read-out: Activity.
Series [5] deals with M14. Kind of series: Cytotoxicity against human M14 cells assessed as cell growth at 10^-6 M after 48 hrs by SRB assay. The class given is functional. To be noted: M14, 48 h, read-out: Activity.
Series [6] in a line: Cytotoxicity against human Hs 578T cells assessed as cell growth at 10^-8 M after 48 hrs by SRB assay. The class given is functional. Particulars: read-out: Activity.
The subject of series [7] is SK-MEL-2. Kind of series: Cytotoxicity against human SK-MEL-2 cells assessed as cell growth at 10^-4 M after 48 hrs by SRB assay. To be noted: SK-MEL-2, 48 h, read-out: Activity. The class given is functional.
The test system of series [8] is NCI-H522. Description: Cytotoxicity against human NCI-H522 cells assessed as cell growth at 10^-6 M after 48 hrs by SRB assay. The class given is functional. To be noted: NCI-H522, 48 h, read-out: Activity.
The test system of series [9] is MDA-MB-231. Kind of series: Cytotoxicity against human MDA-MB-231 cells assessed as cell growth at 10^-6 M after 48 hrs by SRB assay. Particulars: MDA-MB-231, 48 h, read-out: Activity. The class given is functional.
Series [10] can be described thus: Cytotoxicity against human NCI-ADR-RES cells assessed as cell growth at 10^-4 M after 48 hrs by SRB assay. The class given is functional. Particulars: read-out: Activity.
Series [11] deals with SK-MEL-5. Kind of series: Cytotoxicity against human SK-MEL-5 cells assessed as cell growth at 10^-7 M after 48 hrs by SRB assay. The class given is functional. Particulars: SK-MEL-5, 48 h, read-out: Activity.
Series [12] can be described thus: Cytotoxicity against human SW620 cells assessed as cell growth at 10^-5 M after 48 hrs by SRB assay. Particulars: SW-620, 48 h, read-out: Activity. The class given is functional.
The test system of series [13] is SK-MEL-28. Description: Cytotoxicity against human SK-MEL-28 cells assessed as cell growth at 10^-5 M after 48 hrs by SRB assay. The class given is functional. To be noted: SK-MEL-28, 48 h, read-out: Activity.
A short description of series [14]: Cytotoxicity against human HOP92 cells assessed as cell growth at 10^-8 M after 48 hrs by SRB assay. The class given is functional. To be noted: HOP-92, 48 h, read-out: Activity.
Series [15] in a line: Cytotoxicity against human MOLT4 cells assessed as cell growth at 10^-7 M after 48 hrs by SRB assay. The class given is functional. Particulars: MOLT-4, 48 h, read-out: Activity.
In series [16] the test system is MDA-MB-435. Kind of series: Cytotoxicity against human MDA-MB-435 cells assessed as cell growth at 10^-7 M after 48 hrs by SRB assay. The class given is functional. Particulars: MDA-MB-435, 48 h, read-out: Activity.
Series [17] has as its system MDA-MB-468. Description: Cytotoxicity against human MDA-MB-468 cells assessed as cell growth at 10^-8 M after 48 hrs by SRB assay. The class given is functional. To be noted: MDA-MB-468, 48 h, read-out: Activity.
A short description of series [18]: Cytotoxicity against human OVCAR8 cells assessed as cell growth at 10^-8 M after 48 hrs by SRB assay. The class given is functional. To be noted: OVCAR-8, 48 h, read-out: Activity.
A short description of series [19]: Cytotoxicity against human Hs 578T cells assessed as cell growth at 50 uM after 48 hrs by SRB assay. The class given is functional. Particulars: read-out: Activity.
Series [20] in a line: Cytotoxicity against human SKOV3 cells assessed as cell growth at 0.5 uM after 48 hrs by SRB assay. The class given is functional. To be noted: SK-OV-3, 48 h, read-out: Activity.
The test system of series [21] is MCF7. Kind of series: Cytotoxicity against human MCF7 cells assessed as cell growth at 5 nM after 48 hrs by SRB assay. The class given is functional. Particulars: MCF7, 48 h, read-out: Activity.
Series [22] concerns NCI-H23. Kind of series: Cytotoxicity against human NCI-H23 cells assessed as cell growth at 50 nM after 48 hrs by SRB assay. Particulars: NCI-H23, 48 h, read-out: Activity. The class given is functional.
Series [23] in a line: Cytotoxicity against human SF295 cells assessed as cell growth at 50 nM after 48 hrs by SRB assay. Particulars: SF-295, 48 h, read-out: Activity. The class given is functional.
Series [24] in a line: Cytotoxicity against human OVCAR4 cells assessed as cell growth at 5 uM after 48 hrs by SRB assay. The class given is functional. Particulars: OVCAR-4, 48 h, read-out: Activity.
The subject of series [25] is KM12. Kind of series: Cytotoxicity against human KM12 cells assessed as cell growth at 0.5 uM after 48 hrs by SRB assay. The class given is functional. To be noted: KM12, 48 h, read-out: Activity.
For series [26], the system named is HT-29. Kind of series: Cytotoxicity against human HT-29 cells assessed as cell growth at 50 nM after 48 hrs by SRB assay. Particulars: HT-29, 48 h, read-out: Activity. The class given is functional.
A short description of series [27]: Cytotoxicity against human TK10 cells assessed as cell growth at 50 nM after 48 hrs by SRB assay. The class given is functional. To be noted: TK-10, 48 h, read-out: Activity.
Series [28] is described as follows: Cytotoxicity against human TK10 cells assessed as cell growth at 0.5 uM after 48 hrs by SRB assay. The class given is functional. Particulars: TK-10, 48 h, read-out: Activity.
Series [29] can be described thus: Cytotoxicity against human IGROV1 cells assessed as cell growth at 5 nM after 48 hrs by SRB assay. The class given is functional. To be noted: IGROV-1, 48 h, read-out: Activity.
Series [30] is described as follows: Cytotoxicity against human IGROV1 cells assessed as cell growth at 50 uM after 48 hrs by SRB assay. The class given is functional. Particulars: IGROV-1, 48 h, read-out: Activity.
The test system of series [31] is A549. Description: Cytotoxicity against human A549 cells assessed as cell growth at 5 uM after 48 hrs by SRB assay. The class given is functional. To be noted: A549, 48 h, read-out: Activity.
Series [32] is described as follows: Cytotoxicity against human LOXIMVI cells assessed as cell growth at 50 nM after 48 hrs by SRB assay. The class given is functional. To be noted: LOX IMVI, read-out: Activity.
A short description of series [33]: Metabolic stability in human liver microsomes assessed as remaining parent compound level at 10 uM after 3 hrs in presence of NAPDH by LC/MS analysis. The class given is ADME. Particulars: read-out: Drug metabolism. Background: Microsomes from liver hold many membrane-bound enzymes, among them those of drug oxidation.
A short description of series [34]: Cytotoxicity against human IGROV1 cells assessed as cell growth at 50 nM after 48 hrs by SRB assay. To be noted: IGROV-1, 48 h, read-out: Activity. The class given is functional.
Series [35] is described as follows: Cytotoxicity against human UO31 cells assessed as cell growth at 50 nM after 48 hrs by SRB assay. The class given is functional. To be noted: UO-31, 48 h, read-out: Activity.
Series [36] in a line: Cytotoxicity against human HCC2998 cells assessed as cell growth at 50 nM after 48 hrs by SRB assay. The class given is functional. To be noted: HCC 2998, 48 h, read-out: Activity.
Series [37] deals with 786-0. Kind of series: Cytotoxicity against human 786-0 cells assessed as cell growth at 0.5 uM after 48 hrs by SRB assay. Particulars: 786-0, 48 h, read-out: Activity. The class given is functional.
Series [38] can be described thus: Cytotoxicity against human OVCAR5 cells assessed as cell growth at 5 nM after 48 hrs by SRB assay. Particulars: OVCAR-5, 48 h, read-out: Activity. The class given is functional.
The test system of series [39] is SK-MEL-5. Kind of series: Cytotoxicity against human SK-MEL-5 cells assessed as cell growth at 0.5 uM after 48 hrs by SRB assay. The class given is functional. To be noted: SK-MEL-5, 48 h, read-out: Activity.
Series [40] concerns SR. Kind of series: Cytotoxicity against human SR cells assessed as cell growth at 50 uM after 48 hrs by SRB assay. The class given is functional. Particulars: read-out: Activity.

Regarding `C/C(=C(/c1ccc(O)cc1)c1ccc(OCCN2CCCC2)cc1)c1ccccc1`, the growth at 0.1 µM in series [1] was 95%; in series [11], 102%; in series [15] it was 101%; in [16], 97%. In addition, the figures for the growth at 100 µM in series [2], in [7] and in series [10] were -100%, -89% and -70%, respectively. Moreover, the growth at 1 µM in [3] turned out to be 101%; in series [5], 91%; in [8], 92%; in series [9], 122%. The growth at 10 µM in series [4] was -10%; in series [12], -40%; in series [13] it was -74%. Also, the growth at 0.01 µM came to 100% in series [6], 98% in series [14], 99% in [17] and 104% in series [18].

For `CCCCCCCCCC(=O)Oc1ccc(/C(=C(/C)c2ccccc2)c2ccc(OCCN3CCCC3)cc2)cc1`, the growth at 50 µM was -18% in series [19], -58% in series [30] and -66% in series [40]. Further, the growth at 0.5 µM turned out to be 83% in series [20]; 76% in [25]; 90% in [28]; 79% in series [37]; 62% in series [39]. Besides, the growth at 0.005 µM came out at 45% in [21], 108% in series [29] and 99% in series [38]. Further, the growth at 0.05 µM in series [22] was 96%; in series [23], 89%; in series [26], 98%; in [27], 97%; in series [32] it was 97%; in series [34] it was 95%. The growth at 0.05 µM in [35] was determined as 89%; in series [36] it was 98%. Moreover, the figures for the growth at 5 µM in series [24] and in [31] were 78% and 99%, respectively. Besides, the remaining at 3 h, 10 µM in series [33] was 63%.
